Source: patent US3982931A, “N,N-di-sec.butyl-benzamide herbicides” (priority 1967, dated 1976)

What was measured:
Test in all cases: herbicidal activity, soil treatment one day after sowing
Type in all cases: in vivo
artemisia vulgaris L. = test system: artemisia vulgaris L.
Description: (§1) The infesting species and the agrarian species have been indicated in Table 1 by letters, as follows:
B = artemisia vulgaris L.
(§2) Method of evaluation of the results (of tests):
(§3) 1 slight differences with respect to the control;
(§4) 3 = considerable activity with damages that definitely impair the further development of most of the small plants; an activity degree already useful for practical purposes;
(§5) 4 = maximum of activity with lack of germination or total containment of the small plants in the emerging stage.
(§6) In the case of an intermediate activity between two classes of the scale, both values are recorded with the one which corresponds to the preeminent activity preceding.
(§7) TABLE 2 reports the activity data of other compounds that fall within the class which is the object of this invention.
(§8) TABLE 3 reports data on the herbicidal activity against infesting herbs, while TABLE 4 reports data concerning the activity on useful species of agricultural cultivations. These tables employ the criterion explained previously. […]

[1] = test system: echinocloa crus-galli R.S.
Description: as §1
D = echinocloa crus-galli R.S.
as §2, §3, §4, §5, §6, §7, §8

chenopodium album L. = test system: chenopodium album L.
Description: as §1, §2, §3, §4, §5, §6, §7, §8

vicia sativa L. = test system: vicia sativa L.
Description: as §1, §2, §3, §4, §5, §6, §7

setaria glauca L. = test system: setaria glauca L.
Description: as §1, §2, §3, §4, §5
In the case of an intermediate activity between two classes of the scale, both values are recorded with the one which corresponds to the preeminent activity preceding. […]
as §8

[2] = test system: amaranthus retroflexus L.
Description: as §1
A = amaranthus retroflexus L.
as §2, §3, §4, §5, §6, §7, §8

Row | SMILES | activity on B, 0-4 scale (artemisia vulgaris L.; 6 kg/ha) | activity on D, 0-4 scale ([1]; 6 kg/ha) | activity on C, 0-4 scale (chenopodium album L.; 6 kg/ha) | activity on F, 0-4 scale (vicia sativa L.; 6 kg/ha) | activity on E, 0-4 scale (setaria glauca L.; 6 kg/ha) | activity on A, 0-4 scale ([2]; 6 kg/ha) | other results
1 | O=C(O)c1ccc(Cl)c(Cl)c1 [3,4-dichloro-benzoic acid, reference compound] | 0 | 0 | 0 | 0 | 0 | 0 | 
2 | CCCCN(CCCC)C(=O)c1ccc(Cl)c(Cl)c1 [PA105, 3,4-dichloro-N,N-di-n.butyl-benzamide, reference compound] | 1-2 | 1 | 1 | 0-1 | 2 | 1-2 | activity on B, 0-4 scale (artemisia vulgaris L.; 3 kg/ha): 0-1; activity on D, 0-4 scale ([1]; 3 kg/ha): 0-1; activity on C, 0-4 scale (chenopodium album L.; 3 kg/ha): 0-1; activity on F, 0-4 scale (vicia sativa L.; 3 kg/ha): 0; activity on E, 0-4 scale (setaria glauca L.; 3 kg/ha): 1
3 | CCCN(CCC)C(=O)c1ccc(Cl)cc1Cl [PA200, 2,4-dichloro-N,N-di-n-propyl-benzamide, reference compound] | 2-3 | 2 | 2-3 | 0-1 | 1 | 3 | 
4 | CC(C)CN(CC(C)C)C(=O)c1ccc(Cl)c(Cl)c1 [PA259, 3,4-dichloro-N,N-di-iso-butyl-benzamide, reference compound] | 2 |  | 1-2 | 0-1 |  | 1-2 | 
5 | CC(C)N(C(=O)c1ccc(Cl)cc1Cl)C(C)C [PA281, 2,4-dichloro-N,N-di-isopropyl-benzamide, reference compound] | 2 | 0-1 | 0-1 | 0 | 0-1 | 1-2 | 
6 | CCCCN(CCCC)C(=O)c1ccc(Cl)cc1Cl [PA282, 2,4-dichloro-N,N-di-n.butyl-benzamide, reference compound] | 0 | 1 | 2 | 0-1 | 1 | 2 | 
7 | CCN(CC)C(=O)c1ccc(Cl)cc1Cl [PA283, 2,4-dichloro-N,N-diethyl-benzamide, reference compound] | 2 | 1 | 1-2 | 1 | 1 | 1 | 
8 | CCCCN(CCCC)C(=O)c1cc(Cl)cc(Cl)c1 [PA294, 3,5-dichloro-N,N-di-n.butyl-benzamide, reference compound] | 0-1 | 2 | 1 | 0 | 3 | 0-1 | 
9 | O=C(O)c1cc(Cl)cc(Cl)c1Cl [PA304, 2,3,5-trichloro-benzoic acid, reference compound] | 1 | 0 | 0 | 3 | 0 | 1 | 
10 | CCCN(CCC)C(=O)c1cccc(Cl)c1 [PA322, 3,chloro-N,N-di-n.propyl-benzamide, reference compound] | 1-2 | 1 | 0-1 |  | 0-1 | 1 | 
11 | CCCCN(CC)C(=O)c1ccc(Cl)c(Cl)c1 [PA325, 3,4-dichloro-N-ethyl,N-n.butyl-benzamide, reference compound] | 2 | 0-1 | 2 | 0 | 0-1 | 3 | 
12 | CCN(CC)C(=O)c1cccc(C)c1 [PA383, 3,methyl-N,N-diethyl-benzamide, reference compound] | 3 | 0-1 | 2 | 2 | 0-1 | 2 | 
13 | CCCN(CCC)C(=O)c1cccc(C)c1 [PA384, 3,methyl-N,N-di-n.propyl-benzamide, reference compound] | 2 | 1-2 | 2 | 1-2 | 0-1 | 1 | 
14 | Cc1cccc(C(=O)N(C(C)C)C(C)C)c1 [PA385, 3,methyl-N,N-di-isopropyl-benzamide, reference compound] | 2 |  | 1 | 0-1 | 0-1 | 1-2 | 
15 | CCCCN(CCCC)C(=O)c1cccc(C)c1 [PA386, 3,methyl-N,N-di-n.butyl-benzamide, reference compound] | 1-2 | 0-1 | 2-3 | 0-1 | 0-1 | 3 | 
16 | CCCCN(CCCC)C(=O)c1cccc(Br)c1 [PA396, 3-bromo-N,N-di-n,butyl-benzamide, reference compound] | 1-2 | 0-1 | 0-1 | 0 | 0 | 1 | 
17 | O=C(O)c1cccc(Cl)c1 [PA439, 3,chloro-benzoic acid, reference compound] | 0 | 0 | 0 | 0 | 0 | 0 | 
18 | O=C(O)c1cc(Cl)cc(Cl)c1 [PA440, 3,5-dichloro-benzoic acid, reference compound] | 0 | 0 | 0 | 0 | 0 | 0 | 
19 | O=C(O)c1ccc(Cl)cc1Cl [PA441, 2,4-dichloro-benzoic acid, reference compound] | 0 | 0 | 0 | 0 | 0 | 0 | 
20 | Cc1cccc(C(=O)O)c1 [PA442, 3,methyl-benzoic acid, reference compound] | 0 | 0 | 0 | 0 | 0 | 1 | 
21 | CCC(C)N(C(=O)c1ccc(Br)c(Br)c1)C(C)CC (stereo not shown) [PA484, 3,4-dibromo-N,N-di-sec.butyl-benzamide] | 2-3 | 3-4 | 2 | 0 | 4-3 | 2-3 | activity on B, 0-4 scale (artemisia vulgaris L.; 4 kg/ha): 1; activity on D, 0-4 scale ([1]; 4 kg/ha): 3; activity on C, 0-4 scale (chenopodium album L.; 4 kg/ha): 1; activity on F, 0-4 scale (vicia sativa L.; 4 kg/ha): 0; activity on E, 0-4 scale (setaria glauca L.; 4 kg/ha): 3; activity on A, 0-4 scale ([2]; 4 kg/ha): 1-2
22 | C=CCN(CC=C)C(=O)c1cccc(Br)c1 [PA499, 3-bromo-N,N-di-allyl-benzamide, reference compound] | 3 | 3 | 3 | 3 | 3 |  | activity on B, 0-4 scale (artemisia vulgaris L.; 4 kg/ha): 3; activity on D, 0-4 scale ([1]; 4 kg/ha): 1; activity on C, 0-4 scale (chenopodium album L.; 4 kg/ha): 2; activity on F, 0-4 scale (vicia sativa L.; 4 kg/ha): 1; activity on E, 0-4 scale (setaria glauca L.; 4 kg/ha): 2; activity on A, 0-4 scale ([2]; 4 kg/ha): 2-3
23 | CCC(C)N(C(=O)c1cc(Cl)ccc1Br)C(C)CC (stereo not shown) [PA504, 2-bromo,5-chloro-N,N-di-sec.butyl-benzamide] | 1-2 | 3-4 | 2 | 0-1 | 4 | 2 | activity on D, 0-4 scale ([1]; 2 kg/ha): 2-3; activity on D, 0-4 scale ([1]; 3 kg/ha): 2-3; activity on D, 0-4 scale ([1]; 4 kg/ha): 3; activity on E, 0-4 scale (setaria glauca L.; 2 kg/ha): 2-3; activity on E, 0-4 scale (setaria glauca L.; 3 kg/ha): 3; activity on E, 0-4 scale (setaria glauca L.; 4 kg/ha): 3-4
24 | CCC(C)N(CC(C)C)C(=O)c1ccc(Cl)c(Cl)c1 (stereo not shown) [PA566, 3,4-dichloro-N-isobutyl,N-sec.butyl-benzamide] | 2-3 |  | 3 | 0-1 | 4 | 3 | 
25 | CCC(C)N(C(=O)c1ccc(Cl)c(I)c1)C(C)CC (stereo not shown) [PA614, 4-chloro,3-iodo-N,N-di-sec.butyl-benzamide] | 0-1 | 3 | 1 | 0 |  | 1 | 
